Key:
CRBN and Helios (IKZF2) = target: T1, CRBN and Helios (IKZF2) (Homo sapiens, UniProt Q96SW2+Q9UKS7); experiment: TR-FRET dimerization assay (CRBN-IKZF2 ternary complex formation); format: binding; settings: n=1
T1 construct: His (N); Strep (N)
Procedure: A focused library of imide analogs was synthesized and assessed for their ability to induce dimerization between CRBN and Helios in a time-resolved fluorescence energy transfer (TR-FRET) assay (FIG. 1A).
Prior to TR-FRET measurements being conducted, the reactions were incubated for 15 min at rt. […] The TR-FRET signal of each data point was extracted by calculating the 520/490 nm ratios. Data from single measurements (n=1), each calculated as an average of at least three technical replicates per well per experiment are presented in Table 1.
BODIPY-labeled CRBN in complex with Damage Specific DNA Binding Protein 1 (DDB1) harboring an internal deletion of the flexible BPB propeller (DDB1AB-CRBN) and in vitro biotinylated IKZF2 were treated with increasing concentrations of the indicated compounds in the presence of tracer amounts of Terbium-Streptavidin (Tb-SA). Compound-induced recruitment of IKZF2 to CRBN was quantified following the 520/490 TR-FRET ratio using a PHERAstar® plate reader (BMG) utilizing two synchronized PMTs to reduce background.

IKZF2 = experiment: Cellular degradation assay, eGFP-IKZF2Δ fusion with mCherry reporter in Flp-In 293 cells; format: cell-based; settings: for IKZF2 GFP/RFP Relative Abundance: 5 h incubation, n=1; for DC50: half degradation at 5 h (DC50,5 h), triplicate, 11 point dose response
Procedure: (§1) IKZF1Δ, IKZF2Δ, GSPT1 and SALL4 ZnF1-2 were subcloned into mammalian pcDNA5/FRT Vector (Ampicillin and Hygromycin B resistant) modified to contain MCS-eGFP-P2A-mCherry. […] Following 2-3 passage cycle, FACS (FACSAria™ II, BD) was used to enrich for cells expressing eGFP and mCherry. Cells stably expressing the IKZF1Δ, IKZF2Δ, GSPT1 or SALL4 Znf1-2 GFP fusions with mCherry reporter were seeded at 30-50% confluency in 384-well plates with 50 μL FluoroBrite™ DMEM media (Thermo Fisher Scientific, A18967) containing 10% FBS per well a day before compound treatment. Compound titrations were dispensed using a D300e Digital Dispenser (HP), normalized to 0.5% DMSO, and incubated with cells for 5 hours.
(§2) The resulting images were analyzed using CellProfiler™. A series of image analysis steps (‘image analysis pipeline’) was constructed. First, the red and green channels were aligned and cropped to target the middle of each well (to avoid analysis of heavily clumped cells at the edges), and a background illumination function was calculated for both red and green channels of each well individually and subtracted to correct for illumination variations across the 384-well plate from various sources of error. An additional step was then applied to the green channel to suppress the analysis of large auto fluorescent artifacts and enhance the analysis of cell specific fluorescence by way of selecting for objects under a given size, 30 A.U., and with a given shape, speckles. mCherry-positive cells were then identified in the red channel filtering for objects between 8-60 pixels in diameter and using intensity to distinguish between clumped objects. The green channel was then segmented into GFP positive and negative areas and objects were labeled as GFP positive if at least 40% of it overlapped with a GFP positive area. The fraction of GFP-positive cells/mCherry-positive cells in each well was then calculated, and the green and red images were rescaled for visualization.
(§3) The degradation assay was performed as described above. […] Degradation was measured after 5 h of compound treatment and the concentrations that lead to half degradation at 5 h (DC50,5 h) were calculated using the nonlinear fit variable slope model (GraphPad Software).

IKZF1 = target: T2, IKZF1 (Homo sapiens, UniProt Q13422); experiment: Cellular degradation assay, eGFP-IKZF1Δ fusion with mCherry reporter in Flp-In 293 cells; format: cell-based; settings: for IKZF1 GFP/RFP Relative Abundance: 5 h incubation, n=1; for DC50: half degradation at 5 h (DC50,5 h), triplicate, 11 point dose response
T2 construct: expressed in transfected cells; host or cells: Flp-In 293
Procedure: as §1, §2, §3

GSPT1 = GSPT1 (Homo sapiens, UniProt P15170+Q96SW2); experiment: Cellular degradation assay, eGFP-GSPT1 fusion with mCherry reporter in Flp-In 293 cells; format: cell-based; parameters: expressed in transfected cells; host or cells: Flp-In 293; settings: for GSPT1 GFP/RFP Relative Abundance: 5 h incubation, n=1; for DC50: half degradation at 5 h (DC50,5 h), triplicate, 11 point dose response
Procedure: as §1, §2, §3

[1] = compound concentration 6.6667E−05
[2] = compound concentration 6.6667E−06
[3] = compound concentration 6.6667E−07 (667 nM)
[4] = compound concentration 2.00E−05
[5] = compound concentration 2.00E−06
[6] = compound concentration 2.00E−07

T2 sequence (Q13422 83-213 isoform Q13422-7 limits assumed): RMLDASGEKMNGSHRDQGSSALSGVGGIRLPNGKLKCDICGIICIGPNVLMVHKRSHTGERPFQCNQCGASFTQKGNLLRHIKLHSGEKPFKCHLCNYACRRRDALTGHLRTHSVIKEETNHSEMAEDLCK
T2 sequence (Q96SW2 whole entry partner, the tested form may be a part): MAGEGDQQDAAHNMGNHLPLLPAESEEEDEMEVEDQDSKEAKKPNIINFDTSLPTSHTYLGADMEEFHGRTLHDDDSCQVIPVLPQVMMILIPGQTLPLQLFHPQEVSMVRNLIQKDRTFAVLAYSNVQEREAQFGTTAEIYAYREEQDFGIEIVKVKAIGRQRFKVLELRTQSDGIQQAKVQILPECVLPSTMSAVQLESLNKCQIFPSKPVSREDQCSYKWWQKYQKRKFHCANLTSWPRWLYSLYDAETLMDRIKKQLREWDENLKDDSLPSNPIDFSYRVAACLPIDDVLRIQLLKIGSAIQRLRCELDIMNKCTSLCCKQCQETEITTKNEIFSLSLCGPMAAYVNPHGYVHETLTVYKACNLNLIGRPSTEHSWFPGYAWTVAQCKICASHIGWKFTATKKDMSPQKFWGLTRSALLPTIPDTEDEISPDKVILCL
T2 sequence (Q16531 2-1140 partner limits assumed): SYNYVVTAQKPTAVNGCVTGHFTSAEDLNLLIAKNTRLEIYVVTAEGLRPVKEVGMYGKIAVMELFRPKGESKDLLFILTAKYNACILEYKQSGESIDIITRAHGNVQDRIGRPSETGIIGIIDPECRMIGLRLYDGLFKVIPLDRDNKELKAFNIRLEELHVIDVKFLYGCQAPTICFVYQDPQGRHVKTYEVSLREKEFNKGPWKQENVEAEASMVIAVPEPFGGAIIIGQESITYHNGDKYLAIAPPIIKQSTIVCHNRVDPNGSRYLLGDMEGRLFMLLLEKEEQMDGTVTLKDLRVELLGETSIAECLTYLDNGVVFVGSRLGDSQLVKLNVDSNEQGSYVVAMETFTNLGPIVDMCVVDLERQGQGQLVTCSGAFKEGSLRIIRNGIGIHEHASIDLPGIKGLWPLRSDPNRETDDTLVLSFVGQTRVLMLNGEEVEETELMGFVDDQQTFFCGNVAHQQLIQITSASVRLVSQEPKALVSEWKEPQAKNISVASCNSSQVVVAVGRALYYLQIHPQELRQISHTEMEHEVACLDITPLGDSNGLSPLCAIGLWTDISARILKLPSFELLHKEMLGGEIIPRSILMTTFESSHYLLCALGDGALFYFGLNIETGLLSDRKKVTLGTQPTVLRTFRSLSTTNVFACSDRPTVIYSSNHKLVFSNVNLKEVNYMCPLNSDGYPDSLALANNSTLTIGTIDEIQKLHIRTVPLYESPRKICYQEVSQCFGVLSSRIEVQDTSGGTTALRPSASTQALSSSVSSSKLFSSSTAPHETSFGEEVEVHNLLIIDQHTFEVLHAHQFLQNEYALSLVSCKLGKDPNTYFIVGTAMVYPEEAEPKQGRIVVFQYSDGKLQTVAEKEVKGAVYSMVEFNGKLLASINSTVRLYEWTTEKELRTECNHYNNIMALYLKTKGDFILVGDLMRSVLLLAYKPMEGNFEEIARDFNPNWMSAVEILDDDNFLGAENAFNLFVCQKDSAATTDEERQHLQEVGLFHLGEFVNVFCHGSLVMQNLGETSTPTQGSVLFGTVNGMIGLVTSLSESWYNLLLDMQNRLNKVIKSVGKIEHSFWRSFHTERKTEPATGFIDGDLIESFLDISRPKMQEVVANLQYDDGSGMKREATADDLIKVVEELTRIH
T1 sequence (Q96SW2 whole entry): as the sequence (Q96SW2 whole entry partner, the tested form may be a part) above
T1 sequence (Q9UKS7 whole entry): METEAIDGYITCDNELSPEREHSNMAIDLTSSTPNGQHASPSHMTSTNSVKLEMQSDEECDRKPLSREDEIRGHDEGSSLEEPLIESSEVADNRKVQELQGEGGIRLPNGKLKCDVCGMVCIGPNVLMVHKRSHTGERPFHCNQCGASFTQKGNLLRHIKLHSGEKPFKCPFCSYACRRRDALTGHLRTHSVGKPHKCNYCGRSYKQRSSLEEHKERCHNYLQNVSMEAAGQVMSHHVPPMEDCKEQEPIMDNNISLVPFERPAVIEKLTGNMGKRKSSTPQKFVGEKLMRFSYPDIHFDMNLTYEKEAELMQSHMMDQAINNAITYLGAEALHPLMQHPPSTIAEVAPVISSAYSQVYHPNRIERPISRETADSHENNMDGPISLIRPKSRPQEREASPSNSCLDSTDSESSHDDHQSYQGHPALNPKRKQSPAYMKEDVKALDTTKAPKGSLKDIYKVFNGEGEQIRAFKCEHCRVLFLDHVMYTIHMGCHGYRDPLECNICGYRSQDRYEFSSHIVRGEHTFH
Chain of GSPT1 (P15170 whole entry, the tested form may be a part): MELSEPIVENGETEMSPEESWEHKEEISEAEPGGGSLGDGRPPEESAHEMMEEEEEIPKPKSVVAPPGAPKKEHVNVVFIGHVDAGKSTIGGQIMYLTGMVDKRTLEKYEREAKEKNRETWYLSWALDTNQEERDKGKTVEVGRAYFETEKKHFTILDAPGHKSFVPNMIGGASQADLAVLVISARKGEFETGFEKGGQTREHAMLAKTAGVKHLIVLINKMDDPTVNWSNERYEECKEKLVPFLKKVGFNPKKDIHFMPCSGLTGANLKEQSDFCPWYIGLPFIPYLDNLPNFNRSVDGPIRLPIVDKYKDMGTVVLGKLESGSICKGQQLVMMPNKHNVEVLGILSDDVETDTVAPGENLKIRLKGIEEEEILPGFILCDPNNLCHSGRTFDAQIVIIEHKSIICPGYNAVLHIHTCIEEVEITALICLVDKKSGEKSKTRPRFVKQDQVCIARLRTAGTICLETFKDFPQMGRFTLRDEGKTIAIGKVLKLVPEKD
Chain of GSPT1 (Q96SW2 whole entry, the tested form may be a part): as the sequence (Q96SW2 whole entry partner, the tested form may be a part) above
Chain of GSPT1 (Q16531 whole entry partner, the tested form may be a part): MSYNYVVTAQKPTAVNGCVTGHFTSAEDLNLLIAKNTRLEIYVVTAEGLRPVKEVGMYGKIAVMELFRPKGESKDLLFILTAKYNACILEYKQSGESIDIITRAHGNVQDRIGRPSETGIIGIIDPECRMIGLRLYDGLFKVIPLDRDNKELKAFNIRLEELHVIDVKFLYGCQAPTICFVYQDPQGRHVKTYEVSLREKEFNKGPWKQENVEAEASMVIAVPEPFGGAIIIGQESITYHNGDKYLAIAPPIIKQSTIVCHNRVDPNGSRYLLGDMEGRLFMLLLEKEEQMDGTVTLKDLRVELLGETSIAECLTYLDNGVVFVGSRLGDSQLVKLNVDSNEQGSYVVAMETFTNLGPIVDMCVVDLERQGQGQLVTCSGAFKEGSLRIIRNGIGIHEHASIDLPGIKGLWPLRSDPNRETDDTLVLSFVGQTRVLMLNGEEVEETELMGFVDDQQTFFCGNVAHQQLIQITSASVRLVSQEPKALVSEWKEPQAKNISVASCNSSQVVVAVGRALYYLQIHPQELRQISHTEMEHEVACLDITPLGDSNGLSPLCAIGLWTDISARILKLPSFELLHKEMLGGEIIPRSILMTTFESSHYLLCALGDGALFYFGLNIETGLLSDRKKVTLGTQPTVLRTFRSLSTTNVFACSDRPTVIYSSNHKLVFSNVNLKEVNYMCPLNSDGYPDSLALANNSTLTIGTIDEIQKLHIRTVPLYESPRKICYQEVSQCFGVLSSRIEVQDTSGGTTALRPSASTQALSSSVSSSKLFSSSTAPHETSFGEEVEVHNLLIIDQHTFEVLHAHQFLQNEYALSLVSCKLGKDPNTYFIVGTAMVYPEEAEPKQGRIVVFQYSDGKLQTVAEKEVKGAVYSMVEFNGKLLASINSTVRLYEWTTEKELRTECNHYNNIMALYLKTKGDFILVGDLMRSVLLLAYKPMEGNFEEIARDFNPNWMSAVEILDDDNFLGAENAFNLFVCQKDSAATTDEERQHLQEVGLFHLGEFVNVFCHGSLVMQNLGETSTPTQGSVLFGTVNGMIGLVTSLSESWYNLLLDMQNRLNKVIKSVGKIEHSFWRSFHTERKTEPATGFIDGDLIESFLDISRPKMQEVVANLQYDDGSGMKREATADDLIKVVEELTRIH

Row | Structure (SMILES) | TR-FRET-IKZF2 (Normalized to CC-885) (CRBN and Helios (IKZF2); [1]) | TR-FRET-IKZF2 (Normalized to CC-885) (CRBN and Helios (IKZF2); [2]) | TR-FRET-IKZF2 (Normalized to CC-885) (CRBN and Helios (IKZF2); [3]) | IKZF2 GFP/RFP Relative Abundance (IKZF2; [4]) | IKZF2 GFP/RFP Relative Abundance (IKZF2; [5]) | IKZF2 GFP/RFP Relative Abundance (IKZF2; [6]) | IKZF1 GFP/RFP Relative Abundance (IKZF1; [4]) | IKZF1 GFP/RFP Relative Abundance (IKZF1; [5]) | IKZF1 GFP/RFP Relative Abundance (IKZF1; [6]) | GSPT1 GFP/RFP Relative Abundance (GSPT1; [4]) | GSPT1 GFP/RFP Relative Abundance (GSPT1; [5]) | GSPT1 GFP/RFP Relative Abundance (GSPT1; [6]) | degradation selectivity IKZF2/IKZF1 (IKZF2; from DC50 values of Table 3) [fold] | DC50 (IKZF2) [nM] | DC50 (IKZF1) [nM] | DC50 (GSPT1) [nM]
1 | Cc1ccc(NC(=O)CCc2cccc(NC3=CC(=O)N(C4CCC(=O)NC4=O)C3=O)c2)cc1Cl (stereo not shown) [Compound 53, N-(3-chloro-4-methylphenyl)-3-(3-((1-(2,6-dioxopiperidin-3-yl)-2,5-dioxo-2,5-dihydro-1H-pyrrol-3-yl)amino)phenyl)propanamide] | 1.708 | 1.574 | 1.455 | 0.030 | 0.022 | 0.029 | 0.110 | 0.077 | 0.078 | 0.232 | 0.982 | 0.931 | – | – | – | –
2 | Cc1ccc(NC(=O)Nc2cccc(NC3=CC(=O)N(C4CCC(=O)NC4=O)C3=O)c2)cc1C (stereo not shown) [Compound 55, 1-(3,4-dimethylphenyl)-3-(3-((1-(2,6-dioxopiperidin-3-yl)-2,5-dioxo-2,5-dihydro-1H-pyrrol-3-yl)amino)phenyl)urea] | 0.523 | 0.430 | 0.321 | 1.029 | 0.936 | 0.938 | 0.471 | 0.212 | 0.251 | 0.096 | 0.153 | 0.180 | – | – | – | –
3 | CC(C)(NC(=O)Cc1cccc(C(F)(F)F)c1)c1cccc(NC2=CC(=O)N(C3CCC(=O)NC3=O)C2=O)c1 (stereo not shown) [Compound 139, N-(2-(3-((1-(2,6-dioxopiperidin-3-yl)-2,5-dioxo-2,5-dihydro-1H-pyrrol-3-yl)amino)phenyl)propan-2-yl)-2-(3-(trifluoromethyl)phenyl)acetamide] | – | – | – | – | – | – | – | – | – | – | – | – | 10 | 17 | 167 | > 1000
4 | CC(NC(=O)Cc1cccc(C(F)(F)F)c1)c1cccc(NC2=CC(=O)N(C3CCC(=O)NC3=O)C2=O)c1 (stereo not shown) [Compound 142, N-(1-(3-((1-(2,6-dioxopiperidin-3-yl)-2,5-dioxo-2,5-dihydro-1H-pyrrol-3-yl)amino)phenyl)ethyl)-2-(3-(trifluoromethyl)phenyl)acetamide] | – | – | – | – | – | – | – | – | – | – | – | – | – | 16 | 16 | > 1000
5 | O=C1CCC(N2C(=O)C=C(Nc3cccc(CCC(=O)Nc4cccc(C(F)(F)F)c4)c3)C2=O)C(=O)N1 (stereo not shown) [Compound 148, 3-(3-((1-(2,6-dioxopiperidin-3-yl)-2,5-dioxo-2,5-dihydro-1H-pyrrol-3-yl)amino)phenyl)-N-(3-(trifluoromethyl)phenyl)propanamide] | – | – | – | – | – | – | – | – | – | – | – | – | – | 13 | 3.2 | > 1000
